20 compounds from patent US12466829B2, “Spirocyclic piperidine melanocortin subtype-2 receptor (MC2R) antagonists and uses thereof” (Crinetics Pharmaceuticals, Inc., priority 2019, dated 2025) can be followed below.

This experiment deals with T1, hMC2 receptor (Homo sapiens, UniProt Q01718).
T1 construct: host or cells: CRE-bla-CHO-K1 cells
T1 sequence (Q01718 whole entry): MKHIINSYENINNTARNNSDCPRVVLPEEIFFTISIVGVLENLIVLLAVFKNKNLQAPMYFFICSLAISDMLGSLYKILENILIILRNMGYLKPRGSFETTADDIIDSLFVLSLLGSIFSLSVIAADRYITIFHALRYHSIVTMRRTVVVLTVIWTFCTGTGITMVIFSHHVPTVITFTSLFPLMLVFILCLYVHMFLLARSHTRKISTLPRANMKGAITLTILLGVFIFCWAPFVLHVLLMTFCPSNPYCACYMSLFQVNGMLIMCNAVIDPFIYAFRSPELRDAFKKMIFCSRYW
T1 sequence (Q8TCY5 whole entry partner): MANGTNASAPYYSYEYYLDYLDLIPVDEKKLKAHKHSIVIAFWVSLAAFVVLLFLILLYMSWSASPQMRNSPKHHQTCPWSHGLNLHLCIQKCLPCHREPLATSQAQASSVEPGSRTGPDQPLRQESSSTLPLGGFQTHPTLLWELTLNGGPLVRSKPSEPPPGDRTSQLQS
The experiment can be described thus: hMC2 membrane binding assay ([125I]ACTH (1-39) Tyr23, SPA). Particulars: crude membranes of CRE-bla-CHO-K1 cells expressing hMC2 receptor and hMRAP; 0.2 nM [125I]ACTH (1-39) Tyr23; 1.5 hours at room temperature; read-out: MC2R binding potency. On the procedure: Crude membrane fractions are prepared from CRE-bla-CHO-K1 cells stably expressing hMC2 receptor and hMRAP accessory protein (Thermo Fisher). The cells are grown to 85-100% confluence on standard tissue culture dishes in GlutaMax DMEM growth media (Gibco) with following additives: 10% dialyzed FBS (Gemini), 0.1 mM NEAA (Gibco), 25 mM HEPES (Gibco), 5 μg/mL blasticidin (Goldbio), 100 μg/mL zeocin (Invitrogen), 600 μg/mL hygromycin (Goldbio). To prepare membranes, cells are scraped and collected in 1× Dulbecco's phosphate buffered saline (Corning) and then pelleted at 1000 RPM's. The cell pellet is reconstituted in membrane preparation buffer (20 mM HEPES, 6 mM MgCl2 and 1 mM EGTA, protease inhibitor tablets (Pierce) adjusted to pH 7.4), homogenized using a dounce homogenizer, and the resulting membrane fraction is pelleted by centrifugation at 12,000 RPM's. The membrane pellet is resuspended in membrane preparation buffer, snap freezed and stored at −80° C. for later use.
The hMC2 membrane binding assay utilizes the following components: radiolabel [^125I]ACTH (1-39) Tyr23 (PerkinElmer), wheatgerm agglutinin coated PVT SPA beads (PerkinElmer), crude hMC2R membranes, and compounds. Briefly hMC2R membranes are incubated with SPA beads in binding assay buffer (50 mM HEPES, 5 mM MgCl2, 1 mM CaCl2), 0.2% BSA, protease inhibitor tablets (Pierce) adjusted to pH7.4) prior to assay initiation. […] Assay plates are read using a Top Count NXT and Ki values for compounds are determined using a GraphPad Prism 6 non-linear regression analysis.
As for `CCOc1ncccc1-c1ccc2c(c1)N(C[C@@H](C)N)CC21CCN(c2ccc(C(F)(F)F)cc2C#N)CC1` [1-13, 2-{1-[(2R)-2-aminopropyl]-6-(2-ethoxypyridin-3-yl)-1,2-dihydrospiro[indole-3,4′-piperidin]-1′-yl}-5-(trifluoromethyl)benzonitrile], the Ki was less than 10 nM.

With `CCOc1ncccc1-c1ccc2c(n1)N(CCCN)CC21CCN(c2ccc(C(F)(F)F)cc2C#N)CC1` [1-54, 2-[1′-(3-aminopropyl)-6′-(2-ethoxypyridin-3-yl)-1′,2′-dihydrospiro[piperidine-4,3′-pyrrolo[2,3-b]pyridin]-1-yl]-5-(trifluoromethyl)benzonitrile], the Ki was less than 10 nM.

As to `CCOc1ncccc1-c1ccc2c(c1)N(C(=O)CCN)CC21CCN(c2cc(C#N)cc(C(F)(F)F)c2)CC1` [1-8, 3-[1-(3-aminopropanoyl)-6-(2-ethoxypyridin-3-yl)-1,2-dihydrospiro[indole-3,4′-piperidin]-1′-yl]-5-(trifluoromethyl)benzonitrile], the Ki lay in the range of 1000 to 10000 nM.

For `CCOc1ncccc1-c1ccc2c(c1)N(CCN)C(=O)C21CCN(c2ccc(C(F)(F)F)cc2C#N)CC1` [1-16, 2-[1-(2-aminoethyl)-6-(2-ethoxypyridin-3-yl)-2-oxo-1,2-dihydrospiro[indole-3,4′-piperidin]-1′-yl]-5-(trifluoromethyl)benzonitrile], the Ki was less than 10 nM.

With `CCOc1ncccc1-c1ccc2c(n1)N(C[C@H](N)CO)CC21CCN(c2ccc(C(F)(F)F)cc2C#N)CC1` [1-51, 2-{1′-[(2S)-2-amino-3-hydroxypropyl]-6′-(2-ethoxypyridin-3-yl)-1′,2′-dihydrospiro[piperidine-4,3′-pyrrolo[2,3-b]pyridin]-1-yl}-5-(trifluoromethyl)benzonitrile], the Ki was less than 10 nM.

Turning to `CCOc1ncccc1-c1ccc2c(n1)N(CCN(C)C)C(=O)C21CCN(c2ccc(C(F)(F)F)cc2C#N)CC1` [1-62, 2-{1′-[2-(dimethylamino)ethyl]-6′-(2-ethoxypyridin-3-yl)-2′-oxo-1′,2′-dihydrospiro[piperidine-4,3′-pyrrolo[2,3-b]pyridin]-1-yl}-5-(trifluoromethyl)benzonitrile], the Ki is less than 10 nM.

As to `CCOc1ncccc1-c1ccc2c(c1)N(C(=O)CCCN)CC21CCN(c2ccc(C(F)(F)F)cc2C#N)CC1` [1-11, 2-[1-(4-aminobutanoyl)-6-(2-ethoxypyridin-3-yl)-1,2-dihydrospiro[indole-3,4′-piperidin]-1′-yl]-5-(trifluoromethyl)benzonitrile], the Ki lay in the range of 10 to 100 nM.

Take `CCOc1ncccc1-c1ccc2c(c1)N(CCN)CC21CCN(c2ccc(C(F)(F)F)cc2C#N)CC1` [1-12, 2-[1-(2-aminoethyl)-6-(2-ethoxypyridin-3-yl)-1,2-dihydrospiro[indole-3,4′-piperidin]-1′-yl]-5-(trifluoromethyl)benzonitrile]: the Ki was 10 to 100 nM.

Regarding `CCOc1ncccc1-c1ccc2c(n1)N(C(=O)[C@@H](C)N)CC21CCN(c2ccc(C(F)(F)F)cc2C#N)CC1` [1-47, 2-{1′-[(2R)-2-aminopropanoyl]-6′-(2-ethoxypyridin-3-yl)-1′,2′-dihydrospiro[piperidine-4,3′-pyrrolo[2,3-b]pyridin]-1-yl}-5-(trifluoromethyl)benzonitrile], the Ki was in the range of 10 to 100 nM.

For `CCOc1ncccc1-c1ccc2c(c1)N(C(=O)CN)CC21CCN(c2ccc(C(F)(F)F)cc2C#N)CC1` [1-1, 2-[1-(2-aminoacetyl)-6-(2-ethoxypyridin-3-yl)-1,2-dihydrospiro[indole-3,4′-piperidin]-1′-yl]-5-(trifluoromethyl)benzonitrile], the Ki was 10 to 100 nM.

For the compound “2-[1′-(3-aminopropyl)-7′-(2-ethoxypyridin-3-yl)-2′-oxo-2′,3′-dihydro-1′H-spiro[piperidine-4,4′-quinolin]-1-yl]-5-(trifluoromethyl)benzonitrile [1-67]”, the Ki was 10 to 100 nM.

With `CCOc1ncccc1-c1ccc2c(c1)N(C[C@@H]1CCN1)CC21CCN(c2ccc(C(F)(F)F)cc2C#N)CC1` [1-39, 2-(1-{[(2S)-azetidin-2-yl]methyl}-6-(2-ethoxypyridin-3-yl)-1,2-dihydrospiro[indole-3,4′-piperidin]-1′-yl)-5-(trifluoromethyl)benzonitrile], the Ki was 10 to 100 nM.

Take `CCOc1ncccc1-c1ccc2c(n1)N(C(=O)CCN(C)C)CC21CCN(c2ccc(C(F)(F)F)cc2C#N)CC1` [1-58, 2-{1′-[3-(dimethylamino)propanoyl]-6′-(2-ethoxypyridin-3-yl)-1′,2′-dihydrospiro[piperidine-4,3′-pyrrolo[2,3-b]pyridin]-1-yl}-5-(trifluoromethyl)benzonitrile]: the Ki is less than 10 nM.

For `CCOc1ncccc1-c1ccc2c(c1)N([C@H](C)CN)CC21CCN(c2ccc(C(F)(F)F)cc2C#N)CC1` [1-40, 2-{1-[(2R)-1-aminopropan-2-yl]-6-(2-ethoxypyridin-3-yl)-1,2-dihydrospiro[indole-3,4′-piperidin]-1′-yl}-5-(trifluoromethyl)benzonitrile], the Ki is less than 10 nM.

With `CCOc1ncccc1-c1ccc2c(n1)N(CCN)C(=O)C21CCN(c2ccc(C(F)(F)F)cc2C#N)CC1` [1-60, 2-[1′-(2-aminoethyl)-6′-(2-ethoxypyridin-3-yl)-2′-oxo-1′,2′-dihydrospiro[piperidine-4,3′-pyrrolo[2,3-b]pyridin]-1-yl]-5-(trifluoromethyl)benzonitrile], the Ki is less than 10 nM.

On to `CCOc1ncccc1-c1ccc2c(c1)N(C(=O)[C@H]1CCNC1)CC21CCN(c2ccc(C(F)(F)F)cc2C#N)CC1` [1-10, 2-[6-(2-ethoxypyridin-3-yl)-1-[(3S)-pyrrolidine-3-carbonyl]-1,2-dihydrospiro[indole-3,4′-piperidin]-1′-yl]-5-(trifluoromethyl)benzonitrile], for which the Ki lay within 10 to 100 nM.

On to `CCOc1ncccc1-c1ccc2c(n1)N(C(=O)NCCN)CC21CCN(c2ccc(C(F)(F)F)cc2C#N)CC1` [1-55, N-(2-aminoethyl)-1-[2-cyano-4-(trifluoromethyl)phenyl]-6′-(2-ethoxypyridin-3-yl)-1′,2′-dihydrospiro[piperidine-4,3′-pyrrolo[2,3-b]pyridine]-1′-carboxamide], for which the Ki was less than 10 nM.

In the case of `CCOc1ncccc1-c1ccc2c(c1)N([C@@H](C)CN)CC21CCN(c2ccc(C(F)(F)F)cc2C#N)CC1` [1-41, 2-{1-[(2S)-1-aminopropan-2-yl]-6-(2-ethoxypyridin-3-yl)-1,2-dihydrospiro[indole-3,4′-piperidin]-1′-yl}-5-(trifluoromethyl)benzonitrile], the Ki was in the range of 10 to 100 nM.

`CCOc1ncccc1-c1ccc2c(c1)N(C[C@H]1CCN1)CC21CCN(c2ccc(C(F)(F)F)cc2C#N)CC1` [1-38, 2-(1-{[(2R)-azetidin-2-yl]methyl}-6-(2-ethoxypyridin-3-yl)-1,2-dihydrospiro[indole-3,4′-piperidin]-1′-yl)-5-(trifluoromethyl)benzonitrile]: the Ki lay in the range of 10 to 100 nM.

`CCOc1ccc(N2CCC3(CC2)CN(C(=O)CCN)c2cc(-c4cccnc4OCC)ccc23)c(C#N)n1` [1-44, 3-[1-(3-aminopropanoyl)-6-(2-ethoxypyridin-3-yl)-1,2-dihydrospiro[indole-3,4′-piperidin]-1′-yl]-6-ethoxypyridine-2-carbonitrile]: the Ki fell in the range of 10 to 100 nM.
